Where two headings read alike, the source gives them in different places.
Assay: physchem
Assay type: physicochemical
Details: for chromatographic logP: read-out: logP
Method in brief: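 Reversed-phase C18 HPLC (50×4.6 mm, 1.8 micron), 55 °C, 2.0 ml/min, acetonitrile/water with formic acid. Linear gradient 10% to 95% acetonitrile over 4.25 min, then 95% for 1.25 min. logP derived from retention per EEC Directive 79/831 Annex V.A8; MS detection.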

[1] = HPLC phase inversion (reversed-phase) C18 column, HPLC method a), eluent acetonitrile/water with formic acid
[2] = HPLC method a), eluent acetonitrile/water with formic acid
[3] = HPLC phase inversion (reversed-phase) C18 column, HPLC on C18 phase inversion column, method a)

Row | Structure (SMILES) | logP | other results
1 | Cn1nc(C(F)(F)F)c(Cl)c1C(=O)Nc1ccc(Cl)c(C(=O)NCC(F)(F)F)c1 [Ik-154] | 3.20^a) | 
2 | Cc1nc(C(F)(F)C(F)(F)F)nc(C)c1C(=O)Nc1ccc(Cl)c(C(=O)NC2CC2)c1 [Ib-8] | 2.82^a) | 
3 | Cn1nc(C(F)(F)C(F)(F)F)c(C(F)(F)F)c1C(=O)Nc1cc(C(=O)NCc2ccccc2)c(Cl)cc1F [Ik-142] | 4.00^a) | 
4 | CCOC(=O)c1c(C)nc(C(F)(F)C(F)(F)F)nc1C [Ethyl 4,6-dimethyl-2-(pentafluoroethyl)pyrimidine-5-carboxylate] |  | chromatographic logP [1]: 3.68
5 | CN(C)C(=O)COC(=O)c1cc(NC(=O)c2c(C(F)(F)F)c(C(F)(F)C(F)(F)F)nn2C)ccc1Cl [Ik-108] | 3.57^a) | 
6 | O=C(NCC(F)(F)F)c1cc(NC(=O)c2cnc(C(F)(F)C(F)(F)C(F)(F)F)nc2C(F)(F)F)ccc1Cl [Ib-16] | 3.88^a) | 
7 | Cn1ccc(C(F)(F)C(F)(F)C(F)(F)C(F)(F)F)n1 [1-Methyl-3-nonafluorobutyl-1H-pyrazole] |  | chromatographic logP [2]: 3.38
8 | O=C(NCC(F)(F)F)c1cc(NC(=O)c2ncc(C(F)(F)F)cc2Cl)ccc1Cl [Ii-3] | 2.86^a) | 
9 | COC(=O)COC(=O)c1cc(NC(=O)c2c(C(F)(F)F)c(C(F)(F)C(F)(F)F)nn2C)ccc1Cl [Ik-107] | 4.03^a) | 
10 | CCN(C(=O)c1c(C(F)(F)F)c(C(F)(F)C(F)(F)F)nn1C)c1ccc(Cl)c(C(=O)NCC(F)(F)F)c1 [Ik-138] | 3.81^a) | 
11 | Cn1nc(C(F)(F)C(F)(F)F)c(C(F)(F)F)c1C(=O)Nc1ccc(Cl)c(C(N)=O)c1 [Ik-163] | 2.83^a) | 
12 | Cn1nc(C(F)(F)C(F)(F)F)c(C(F)(F)F)c1C(=O)Nc1cc(F)c(Cl)c(C(=O)NCC(F)(F)F)c1 [Ik-190] | 3.91^a) | 
13 | CCn1nc(C(F)(F)C(F)(F)F)c(C(F)(F)F)c1C(=O)O [1-Ethyl-3-(pentafluoroethyl)-4-(trifluoromethyl)-1H-pyrazole-5-carboxylic acid] |  | chromatographic logP [1]: 2.18
14 | Cn1nc(C(F)(F)OC(F)(F)OC(F)(F)F)c(Br)c1C(=O)O [4-Bromo-3-{[(difluoro(trifluoromethoxy)methoxy](difluoro)methyl}-1-methyl-1H-pyrazole-5-carboxylic acid] |  | chromatographic logP [1]: 3.56
15 | Cn1nc(C(F)(F)C(F)(F)F)c(C(F)(F)F)c1C(=O)Nc1cc(Br)c(Br)c(C(=O)NCc2ccccc2)c1 [Ik-208] | 4.42^a) | 
16 | Cn1nc(C(F)(F)C(F)(F)F)c(C(F)(F)F)c1C(=O)Nc1cc(F)c(F)c(C(=O)NC2CC2)c1 [Ik-140] | 3.60^a) | 
17 | Cn1nc(-c2ccc(Cl)cc2Cl)c(Br)c1C(=O)Nc1ccc(Cl)c(C(=O)NCC(F)(F)F)c1 [Ik-254] | 4.04^a) | 
18 | Cn1nc(C(F)(F)C(F)(F)F)c(C(F)(F)F)c1C(=O)Nc1cc(F)c(F)c(C(=O)NC2CC2)c1F [Ik-169] | 3.53^a) | 
19 | Cn1nc(C(F)(F)C(F)(F)F)c(C(F)(F)F)c1C(=O)Nc1ccc(F)c(C(=O)NC2CC2)c1 [Ik-155] | 3.31^a) | 
20 | Cn1cc(Br)c(C(F)(F)C(F)(F)C(F)(F)F)n1 [4-Bromo-1-methyl-3-heptafluoropropyl-1H-pyrazole] |  | chromatographic logP [2]: 3.53

Row | Structure (SMILES) | logP | other results
21 | Cc1nc(C(=O)Nc2ccc(Cl)c(C(=O)O)c2)c(C(F)(F)F)c(C(F)(F)C(F)(F)F)n1 [2-chloro-5-({[2-methyl-6-(pentafluoroethyl)-5-(trifluoromethyl)pyrimidin-4-yl]carbonyl}amino)benzoic acid] |  | chromatographic logP [1]: 3.3
22 | Cn1nc(-c2ccccc2Cl)c(Br)c1C(=O)Nc1ccc(Cl)c(C(=O)NCC(F)(F)F)c1 [Ik-252] | 3.41^a) | 
23 | Cc1nc(C(F)(F)C(F)(F)F)nc(C)c1C(=O)Nc1ccc(Cl)c(C(=O)NCC=CCl)c1 [Ib-13] | 3.26^a) | 
24 | COC(=O)c1cc(N)ncc1Cl [methyl 2-amino-5-chloroisonicotinate] |  | chromatographic logP [1]: 1.3
25 | CCOC(=O)c1cnc(C(F)(F)C(F)(F)C(F)(F)F)nc1C(F)(F)F [Ethyl 2-(heptafluoropropyl)-4-(trifluoromethyl)pyrimidine-5-carboxylate] |  | chromatographic logP [2]: 4.32
26 | Cn1nc(C(F)(F)C(F)(F)F)c(C(F)(F)F)c1C(=O)Nc1cc(Br)c(Cl)c(C(=O)NCC(F)(F)F)c1 [Ik-178] | 4.14^a) | 
27 | O=C(O)c1cnc(C(F)(F)C(F)(F)F)nc1C(F)F [4-(Difluoromethyl)-2-(pentafluoroethyl)pyrimidine-5-carboxylic acid] |  | chromatographic logP [1]: 1.8
28 | CC(C)NC(=O)c1cc(NC(=O)c2ccc(C(F)(F)F)nc2Cl)ccc1Cl [Ir-3] | 2.68^a) | 
29 | COC(=O)c1cc(NC(=O)c2c(C(F)(F)F)c(C(F)(F)C(F)(F)F)nn2C)ncc1Br [methyl 5-bromo-2-({[1-methyl-3-(pentafluoroethyl)-4-(trifluoromethyl)-1H-pyrazol-5-yl]carbonyl}amino)-isonicotinate] |  | chromatographic logP [1]: 4.04
30 | CN(C(=O)c1c(C(F)(F)F)c(C(F)(F)C(F)(F)F)nn1C)c1ccc(Cl)c(C(=O)NCC(F)(F)F)c1 [Ik-133] | 3.66^a) | 
31 | O=C(NCc1ccccc1)c1cc(NC(=O)c2cnc(C(F)(F)F)nc2C(F)(F)F)ccc1Cl [Ib-6] | 3.39^a) | 
32 | Cn1nc(C(F)(F)C(F)(F)F)c(C(F)(F)F)c1C(=O)Nc1ccc(F)c(C(=O)NCC(F)(F)F)c1 [Ik-156] | 3.66^a) | 
33 | CN(C(=O)c1cnc(C(F)(F)C(F)(F)F)nc1C(F)(F)F)c1ccc(Cl)c(C(=O)NC2CC2)c1 [Ib-38] | 3.23^a) | 
34 | COC(=O)c1cc(NC(=O)c2c(C(F)(F)F)c(C(F)(F)C(F)(F)F)nn2C)cnc1Cl [methyl 2-chloro-5-({[1-methyl-3-(pentafluoroethyl)-4-(trifluoromethyl)-1H-pyrazol-5-yl]carbonyl}amino)nicotinate] |  | chromatographic logP [1]: 3.7
35 | COCn1nc(C(F)(F)C(F)(F)F)c(C(F)(F)F)c1C(=O)Nc1ccc(Cl)c(C(=O)NC2CC2)c1 [Ik-219] | 3.50^a) | 
36 | COC(=O)c1[nH]nc(C(F)(F)C(F)(F)F)c1C(F)(F)F [Methyl 3-(pentafluoroethyl)-4-(trifluoromethyl)-1H-pyrazole-5-carboxylate] |  | chromatographic logP [1]: 3.02
37 | Cn1nc(C(F)(F)C(F)(F)F)c(C(F)(F)F)c1C(=O)Nc1cc(Cl)cc(C(=O)NC2CC2)c1Cl [Ik-170] | 3.78^a) | 
38 | Cn1nc(C(F)(F)C(F)(F)C(F)(F)C(F)(F)F)c(I)c1C(=O)Nc1ccc(Cl)c(C(=O)NC2CCC2)c1 [Ik-268] | 4.16^a) | 
39 | Cn1nc(C(F)(F)C(F)(F)F)c(C(F)(F)F)c1C(=O)Nc1cccc(C(=O)NCc2ccccc2)c1 [Ik-14] | 3.77^a) | 
40 | Cn1nc(C(F)(F)C(F)(F)F)c(C(F)(F)F)c1C(=O)Nc1ccc(I)c(C(=O)NCc2ccccc2)c1 [Ik-184] | 4.07^a) | 

Row | Structure (SMILES) | logP | other results
41 | O=C(NC1CC1)c1cc(NC(=O)c2[nH]nc(C(F)(F)C(F)(F)F)c2C(F)(F)F)ccc1Cl [Ik-179] | 2.95^a) | 
42 | O=C(NCC(F)(F)F)c1cc(NC(=O)c2[nH]nc(C(F)(F)C(F)(F)F)c2C(F)(F)F)ccc1Cl [Ik-124, N-{4-Chloro-3-[(2,2,2-trifluoroethyl)carbamoyl]phenyl}-3-(pentafluoroethyl)-4-(trifluoromethyl)-1H-pyrazole-5-carboxamide] |  | chromatographic logP [1]: 3.26; chromatographic logP [3]: 3.26
43 | Cn1ccc(C(F)(F)C(F)(F)C(F)(F)F)n1 [1-Methyl-3-heptafluoropropyl-1H-pyrazole] |  | chromatographic logP [2]: 2.84
44 | Cc1nc(C(F)(F)F)ncc1C(=O)Nc1ccc(Cl)c(C(=O)NCC=CCl)c1 [Ib-21] | 2.69^a) | 
45 | O=C(O)c1[nH]nc(C(F)(F)C(F)(F)F)c1C(F)(F)F [3-(Pentafluoroethyl)-4-(trifluoromethyl)-1H-pyrazole-5-carboxylic acid] |  | chromatographic logP [1]: 2
46 | Cn1nc(C(F)(F)C(F)(F)C(F)(F)F)c(Br)c1C(=O)Nc1ccc(Cl)c(C(=O)NC2CC2)c1 [Ik-73] | 3.58^a) | 
47 | Cn1nc(C(F)(F)C(F)(F)F)c(C(F)(F)F)c1C(=O)Nc1cc(F)c(F)c(C(=O)NCC(F)(F)F)c1 [Ik-141] | 3.89^a) | 
48 | Cn1nc(C(F)(F)C(F)(F)F)c(C(F)(F)F)c1C(=O)Nc1cnc(Cl)c(C(=O)O)c1 [Ik-131, 2-Chloro-5-({[1-methyl-3-(pentafluoroethyl)-4-(trifluoromethyl)-1H-pyrazol-5-yl]carbonyl}amino)nicotinic acid] |  | chromatographic logP [1]: 2.27; chromatographic logP [3]: 2.77
49 | CCN(C(=O)c1c(C(F)(F)F)c(C(F)(F)C(F)(F)F)nn1C)c1ccc(Cl)c(C(=O)NC2CC2)c1 [Ik-136] | 3.55^a) | 
50 | CN(C(=O)c1c(C(F)(F)F)c(C(F)(F)C(F)(F)F)nn1C)c1ccc(Cl)c(C(=O)NC2CC2)c1 [Ik-132] | 3.30^a) | 
51 | Cn1nc(C(F)(F)C(F)(F)F)c(C(F)(F)F)c1C(=O)Nc1cc(C(=O)NC2CC2F)c(Cl)cn1 (stereo not shown) [Ik-314] | 3.14^a) | 
52 | Cc1nc(C(F)(F)C(F)(F)F)nc(C)c1C(=O)Nc1ccc(Cl)c(C(=O)NCc2ccccc2)c1 [Ib-14] | 3.49^a) | 
53 | COC(=O)c1c(Cl)cnc(N)c1Cl [methyl 2-amino-3,5-dichloroisonicotinate] |  | chromatographic logP [1]: 1.75
54 | Cn1nc(C(F)(F)C(F)(F)F)c(C(F)(F)F)c1C(=O)Nc1ccc([N+](=O)[O-])c(C(=O)NC2CC2)c1 [Ik-180] | 3.27^a) | 
55 | O=C(NCC=CCl)c1cc(NC(=O)c2cnc(C(F)(F)C(F)(F)F)nc2C(F)F)ccc1Cl [Ib-32] | 3.29^a) | 
56 | Cn1nc(C(F)(F)C(F)(F)F)c(C(F)(F)F)c1C(=O)Nc1ccc(I)c(C(=O)NC2CC2)c1 [Ik-183] | 3.45^a) | 
57 | Cn1nc(C(F)(F)C(F)(F)C(F)(F)F)c(Br)c1C(=O)O [4-Bromo-1-methyl-3-heptafluoropropyl-1H-pyrazole-5-carboxylic acid] |  | chromatographic logP [2]: 2.26
58 | Cn1nc(C(F)(F)C(F)(F)F)c(C(F)(F)F)c1C(=O)Nc1cc(Cl)c(I)c(C(=O)NC2CC2)c1 [Ik-204] | 3.84^a) | 
59 | Cc1nc(C(F)(F)F)ccc1C(=O)Nc1ccc(Cl)c(C(=O)NC2CC2)c1 [Ir-2] | 2.27^a) | 

— patent publication US8946234B2, “Halogen-substituted compounds” (Bayer CropScience AG, priority 2008, dated 2015)
